Assay results taken from article PMC10638401, “Mannich-type modifications of (−)-cannabidiol and (−)-cannabigerol leading to new, bioactive derivatives” (Scientific Reports, 2023).
In brackets after ≈: the same amount, converted by molar mass. Like-named read-outs stand apart in the source and are kept apart here.

Assays:
[1] = test system: Staphylococcus epidermidis mecA; assay: MIC, broth micro dilution
Experimental: (§5) According to CLSI guideline the Minimal Inhibitory Concentrations (MICs) of the prepared compounds were determined with the broth micro dilution method. After an overnight growth on 5% bovine blood agar plates at 35 °C bacterial strains were suspended in physiological saline in order to reach the density of 0.5 McFarland for inoculation. Stock solutions containing different concentrations of the substances were prepared in DMSO and H2O (1:1). These were twofold serially diluted from 256 to 0.5 mg/l in Mueller–Hinton broth, and 100 ml of each dilution was inoculated with 10 ml of each bacterial suspension.

[2] = test system: MRSA (Methicillin Resistant Staphylococcus aureus); assay: MIC, broth micro dilution
Experimental: as §5

[3] = test system: Staphylococcus epidermidis biofilm forming; assay: MIC, broth micro dilution
Experimental: as §5

[4] = test system: Bacillus subtilis; assay: MIC, broth micro dilution
Experimental: as §5

[5] = test system: Enterococcus faecalis 51299 VanB; assay: MIC, broth micro dilution
[6] = test system: MSSA (Methicillin Sensitive Staphylococcus aureus); assay: MIC, broth micro dilution
Experimental: as §5

[7] = test system: Enterococcus faecalis 15 376 VanA; assay: MIC, broth micro dilution
Experimental: as §5

[8] = test system: Enterococcus faecalis 29 212; assay: MIC, broth micro dilution
[9] = test system: MCF7 cells; assay: Antiproliferative MTT assay, 72 h; assay type: cell-based, human; conditions: for antiproliferative activity (in words): MCF7, 10 and 30 μM; for inhibition of the proliferation: MCF7, 30 μM
Text: (§1) Human adherent cancer cell lines A2780, MDA-MB-231 and MCF-7 were obtained from ECACC (European Collection of Cell Cultures, Salisbury, UK; Cat. No.93112519, 92020424, 86012803, respectively). SiHa cell line was obtained from ATCC (American Tissue Culture Collection, Manassas, Virginia, USA; Cat. No. HTB-35). All cell lines used for antiproliferative assay were maintained in Eagle's Minimum Essential Medium (EMEM) completed with 10% fetal bovine serum (FBS), 1% non-essential amino acid solution, and 1% penicillin, streptomycin, and amphotericin B mixture under cell culture conditions described before. All the utilized media and supplements were purchased from Lonza Group Ltd. (Basel, Switzerland).
(§2) The antiproliferative actions of the prepared molecules were determined by the same assay against a panel of adherent human cancer cell lines containing cervical (SiHa), ovarian (A2780) and breast (MCF7, MDA-MB-231) cell lines. Cells were plated onto 96-well microplates (5000 cells/well) and after an overnight incubation treated with two concentrations (10 or 30 μM) of the test substances for 72 h under cell culture conditions. Subsequently, MTT (5 mg/ml in phosphate buffer) was added to the wells, followed by incubation for 4 h. The supernatant was removed, the formazan crystals were then dissolved in 100 µl DMSO. Finally, absorbance values were determined by a microplate reader (BMG Labtech, Ortenberg, Germany) at 545 nm. Two independent measurements were performed with five parallel wells. Results were expressed as percentage of cell proliferation inhibition compared to non-treated control samples regarded as 0%.

[10] = test system: SiHa cells; assay: Antiproliferative MTT assay, 72 h; assay type: cell-based, human; conditions: for antiproliferative activity (in words): 10 and 30 μM
Text: as §1, §2

[11] = test system: MDA-MB-231 cells; assay: Antiproliferative MTT assay, 72 h; assay type: cell-based, human; conditions: for antiproliferative activity (in words): MDA-MB-231, 10 and 30 μM
Text: as §1, §2

[12] = test system: A2780 cells; assay: Antiproliferative MTT assay, 72 h; assay type: cell-based, human; conditions: for antiproliferative activity (in words): A2780, 10 and 30 μM
Text: as §1, §2

[13] = in vitro; conditions: African green monkey
[14] = test system: SARS-CoV-2; assay: SARS-CoV-2 immunofluorescence assay (nucleoprotein expression) in Vero E6 cells; assay type: cell-based; conditions: Severe acute respiratory syndrome coronavirus 2, Vero C1008, 72 h, three days
Experimental: (§3) CBD and CBG derivatives were further tested for their ability to inhibit SARS-CoV-2 replication in Vero E6 cells. Initially, the inhibition of virus-induced cytopathic effect was measured by addition of twofold serial dilutions of each derivative to the cells, followed by the infection with SARS-CoV-2 and determination of the cell viability 3 days post-infection by XTT assay. Concurrently, the cytotoxicity of each compound was assessed from identical dilutions in uninfected Vero E6 cells. To confirm anti-SARS-CoV-2 activity in the CPE inhibition assay, selected compounds were tested in immunofluorescence assay, where inhibition of SARS-CoV-2 replication was monitored as reduction in nucleoprotein expression using fluorescence microscope. […] Among the CBG derivatives, we can find quite cytotoxic and non-cytotoxic derivatives as well.
(§4) For CPE-based assay, two-fold fold serial dilutions of compounds from 100 µM were added in triplicate in a 384-well plate with 5000 Vero E6 cells in DMEM medium with 2% FBS, 100 U of penicillin/ml and 100 µg of streptomycin/ml (all Merck). After 1 h incubation SARS-CoV-2 (strain hCoV-19/Czech Republic/NRL_6632_2/2020) was added at multiplicity of infection […]. Following three days incubation at 37 °C in 5% CO2 the cell viability was determined by addition of XTT solution (Sigma-Aldrich) for 4 h and the absorbance was measured using EnVision plate reader (Perkin Elmer). Drug concentrations required to reduce viral cytopathic effect by 50% (EC50) were calculated using nonlinear regression from plots of percentage cell viability versus log10 drug concentration using GraphPad Prism (version 9.0.0, GraphPad Software, LLC). For immunofluorescence assay, two-fold fold serial dilutions of compounds from 100 µM were added in triplicate in 96-well plate with 15,000 Vero E6 cells plated day before in the same medium as above. After 1 h incubation, SARS-CoV-2 was added at multiplicity of infection 0.05 IU/cell. After three days of incubation, cells were fixed with 4% paraformaldehyde, permeabilized with 0.2% Triton X100 (both Merck), washed, incubated with anti-SARS-CoV-2antibody (mouse monoclonal antibody detecting SARS-CoV-2 nucleoprotein) for 2 h at room temperature. Followed by 1.5 h incubation with Cy3-labeled donkey anti-mouse IgG (Jackson ImmunoResearch Europe) and documented using fluorescence microscope with camera (Olympus). Images were processed in ImageJ software (NIH) and compound concentrations required to reduce fluorescence by 50% (EC50s) were calculated from plots of percentage of fluorescent cells versus log10 drug concentration using nonlinear regression analysis as above. Cytotoxicity was evaluated by incubating with the same two-fold serial dilutions of each compound as above with Vero E6 cells in 384-well plate.

[15] = test system: SARS-CoV-2; assay: SARS-CoV-2 cytopathic effect (CPE) inhibition assay in Vero E6 cells (XTT); assay type: cell-based; conditions: for EC50: Severe acute respiratory syndrome coronavirus 2, Vero C1008, 72 h, Vero E6 cells, 3 days post-infection, XTT; for IC50: Severe acute respiratory syndrome coronavirus 2, Vero C1008, read-out: IC50 (anti-SARS-CoV-2 activity, Figure 8)
Experimental: as §3, §4

[16] = Enterococcus faecalis, 51299VANB
[17] = Enterococcus faecalis, 15376VANA

SMILES	MIC [4] [µg/mL]	antiproliferative activity (in words) [9]	antiproliferative activity (in words) [10]	antiproliferative activity (in words) [11]	antiproliferative activity (in words) [12]	MIC ([1]; Staphylococcus epidermidis) [µg/mL]	CC50 [13] [µM]	MIC ([2]; Staphylococcus aureus) [µg/mL]	EC50 [14] [µM]	MIC ([3]; Staphylococcus epidermidis) [µg/mL]	EC50 [15] [µM]	IC50 [15] [µM]	MIC [5, 16] [µg/mL]	MIC ([6]; Staphylococcus aureus) [µg/mL]	MIC [7, 17] [µg/mL]	MIC ([8]; Enterococcus faecalis, 29212) [µg/mL]	other results
C=C(C)[C@@H]1CCC(C)=C[C@H]1c1c(O)cc(CCCCC)c2c1OCN(CCCC)C2.Cl [Compound 8s]	128	no significant difference was detected	no significant difference was detected	no significant difference was detected	no significant difference was detected	–	–	–	–	–	–	–	–	–	–	–	MIC ([1]; Staphylococcus epidermidis mecA): 128 µg/mL; MIC [2]: 128 µg/mL; MIC ([3]; Staphylococcus epidermidis biofilm forming): 128 µg/mL; MIC ([5]; Enterococcus faecalis 51299 VanB): 2 µg/mL; MIC [6]: 128 µg/mL; MIC ([7]; Enterococcus faecalis 15 376 VanA): 128 µg/mL; MIC ([8]; Enterococcus faecalis 29 212): 2 µg/mL
C=C(C)[C@@H]1CCC(C)=C[C@H]1c1c(O)cc(CCCCC)c2c1OCN(Cc1ccccc1)C2 [Compound 10]	> 256	–	–	–	–	> 256	> 100	> 256	~42	> 256	9 ± 0.51	9	> 256	> 256	> 256	> 256	inhibition of the proliferation [9]: considerable growth inhibition
C=C(C)[C@@H]1CCC(C)=C[C@H]1c1c(O)cc(CCCCC)c2c1OCN(CCCC(=O)O)C2 [Compound 12]	> 256	None of the other tested CBD analogs (9, 11, and 12) exhibited substantial antiproliferative activity	None of the other tested CBD analogs (9, 11, and 12) exhibited substantial antiproliferative activity	None of the other tested CBD analogs (9, 11, and 12) exhibited substantial antiproliferative activity	None of the other tested CBD analogs (9, 11, and 12) exhibited substantial antiproliferative activity	> 256	~56	> 256	39 ± 1.4	> 256	11 ± 1.2	11	> 256	> 256	> 256	> 256	–
C=C(C)[C@@H]1CCC(C)=C[C@H]1c1c(O)c(CN(CC)CC)c(CCCCC)c(CN(CC)CC)c1O [Compound 13]	> 256	–	–	–	–	> 256	12 ± 0.28	> 256	–	> 256	> 12	> 12	> 256	> 256	> 256	> 256	inhibition of the proliferation (in words) ([9]; MCF7, 10 μM): no relevant action; inhibition of the proliferation [9]: similarly effective than CBD; inhibition of the proliferation (in words) ([10]; 10 μM): no relevant action; inhibition of the proliferation ([10]; 30 μM): similarly effective than CBD; inhibition of the proliferation (in words) ([11]; MDA-MB-231, 10 μM): no relevant action; inhibition of the proliferation ([11]; MDA-MB-231, 30 μM): similarly effective than CBD; inhibition of the proliferation (in words) ([12]; A2780, 10 μM): no relevant action; inhibition of the proliferation ([12]; A2780, 30 μM): similarly effective than CBD
CCCCCc1cc(O)c(C/C=C(\C)CCC=C(C)C)c2c1CN(Cc1ccccc1)CO2 [Compound 17a]	> 256	–	–	–	–	> 256	> 100	> 256	–	> 256	> 100	> 100	64 (≈ 143 µM)	> 256	> 256	64 (≈ 143 µM)	–
CCCCCc1c2c(c(C/C=C(\C)CCC=C(C)C)c3c1CN(Cc1ccccc1)CO3)OCN(Cc1ccccc1)C2 [Compound 17b]	–	ineffectiveness	ineffectiveness	ineffectiveness	ineffectiveness	–	–	–	–	–	–	–	–	–	–	–	–
C=CCN1COc2c(c(CCCCC)c3c(c2C/C=C(\C)CCC=C(C)C)OCN(CC=C)C3)C1 [Compound 19b]	–	more active than CBG	more active than CBG	more active than CBG	more active than CBG	–	–	–	–	–	–	–	–	–	–	–	–
CCCCCc1cc(O)c(C/C=C(\C)CCC=C(C)C)c2c1CN(CCCC(=O)O)CO2 [Compound 20]	> 256	–	–	–	–	> 256	> 100	> 256	–	> 256	> 100	> 100	128 (≈ 289 µM)	> 256	128 (≈ 289 µM)	64 (≈ 144 µM)	–
CCC(CC)COC(=O)[C@H](C)N[P@](=O)(OC[C@H]1O[C@@](C#N)(c2ccc3c(N)ncnn23)[C@H](O)[C@@H]1O)Oc1ccccc1 [Remdesivir, reference compound]	–	–	–	–	–	–	> 100	–	1.2 ± 0.03	–	2.8 ± 0.18	–	–	–	–	–	–
